Target: T1, Dihydroorotate dehydrogenase (quinone), mitochondrial (Plasmodium falciparum (isolate 3D7), UniProt Q08210)
T1 sequence (Q08210 whole entry): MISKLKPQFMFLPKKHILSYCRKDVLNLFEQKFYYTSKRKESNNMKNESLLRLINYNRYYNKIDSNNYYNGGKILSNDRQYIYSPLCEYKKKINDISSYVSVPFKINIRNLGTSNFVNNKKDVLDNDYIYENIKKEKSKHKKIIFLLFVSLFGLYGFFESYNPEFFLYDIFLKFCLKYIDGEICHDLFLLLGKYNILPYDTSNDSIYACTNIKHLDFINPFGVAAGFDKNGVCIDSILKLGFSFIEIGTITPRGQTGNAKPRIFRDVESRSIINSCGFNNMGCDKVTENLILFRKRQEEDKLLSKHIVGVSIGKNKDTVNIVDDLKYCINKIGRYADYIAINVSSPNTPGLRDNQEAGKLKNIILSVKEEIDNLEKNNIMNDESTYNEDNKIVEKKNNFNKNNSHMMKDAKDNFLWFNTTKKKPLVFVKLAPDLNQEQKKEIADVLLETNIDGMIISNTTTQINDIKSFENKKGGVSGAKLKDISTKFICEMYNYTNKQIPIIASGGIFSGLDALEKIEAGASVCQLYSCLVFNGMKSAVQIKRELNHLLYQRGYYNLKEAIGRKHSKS
Assay: P. falciparum growth and inhibition assays

- EC50: 39 nM
SMILES: Cc1c(Cc2ccc(C(F)(F)F)c(F)c2)c[nH]c1C(=O)NC(C)c1nc[nH]n1 (stereo unspecified) [US11903936, Compound 5]

Source: BindingDB's records for patent US11903936 (University of Texas, 2024)
